Like-named read-outs stand apart in the source and are kept apart here.
How the values were obtained:
[1] = Changes in MIC under different conditions: broth MIC; assay type: cell-based; details: strain not given
MRSE 879 = experiment: Broth MIC, MRSE 879; assay type: cell-based; details: Staphylococcus epidermidis; MRSE 879; read-out: broth MIC
P. acnes = experiment: Agar dilution MIC, anaerobes; assay type: cell-based; details: Cutibacterium acnes, single isolates, anaerobic agar dilution; read-out: MIC P. acnes
Fusobacterium varium = experiment: Agar dilution MIC, anaerobes; assay type: cell-based; details: Fusobacterium varium, single isolates, anaerobic agar dilution; read-out: MIC Fusobacterium varium
Prevotella bivia = experiment: Agar dilution MIC, anaerobes; assay type: cell-based; details: Prevotella bivia; single isolate, anaerobic agar dilution; read-out: MIC Prevotella bivia
[2] = test system: clinically relevant gram positive pathogens; details: nearly all clinically relevant gram positive pathogens; cited from earlier work
Prevotella intermedia = experiment: Agar dilution MIC, anaerobes; assay type: cell-based; details: single isolates, anaerobic agar dilution
[3] = test system: Prevotella (Bacteroides) disiens; experiment: Agar dilution MIC, anaerobes; assay type: cell-based; details: single isolates, anaerobic agar dilution; read-out: MIC Prevotella (Bacteroides) disiens
[4] = test system: Peptostreptococcus asaccharolyticus; experiment: Agar dilution MIC, anaerobes; assay type: cell-based; details: single isolates, anaerobic agar dilution
anaerobic bacteria = experiment: Agar dilution method for anaerobic bacteria, summary; assay type: cell-based
S. aureus ATCC 25923 = experiment: MIC, agar incorporation method; details: Staphylococcus aureus, ATCC25923, read-out: MIC S. aureus 25923
[5] = test system: Peptostreptococcus micros; experiment: Agar dilution MIC, anaerobes; assay type: cell-based; details: single isolates, anaerobic agar dilution
S. aureus = experiment: Summary of in vitro activity (MIC); details: Staphylococcus aureus
[6] = test system: Peptostreptococcus prevotii; experiment: Agar dilution MIC, anaerobes; assay type: cell-based; details: Anaerococcus prevotii, single isolates, anaerobic agar dilution; read-out: MIC Peptostreptococcus prevotii
[7] = test system: Prevotella melaninogenica; experiment: Agar dilution MIC, anaerobes; assay type: cell-based; details: single isolates, anaerobic agar dilution
Ent. faecalis ATCC 29212 = experiment: MIC, agar incorporation method; details: Enterococcus faecalis, ATCC29212, read-out: MIC E. faecalis 29212
Clostridium camis = experiment: Agar dilution MIC, anaerobes; assay type: cell-based; details: Clostridium; single isolates, anaerobic agar dilution; read-out: MIC Clostridium camis
[8] = test system: Mycobacterium avium intracellulare; experiment: Agar dilution method, mycobacteria; assay type: cell-based
MRSA 562 [9] = experiment: MIC, agar incorporation method; details: Staphylococcus aureus, MRSA
S. pneumoniae = experiment: Summary of in vitro activity (MIC); details: Streptococcus pneumoniae
Porphyromonas gingivalis = experiment: Agar dilution MIC, anaerobes; assay type: cell-based; details: Porphyromonas gingivalis; single isolate, anaerobic agar dilution; read-out: MIC Porphyromonas gingivalis
Clostridium perfringens = experiment: microbe, parasite or virus in culture; assay type: cell-based; details: Clostridium perfringens, read-out: MIC Clostridium perfringens, single isolates, anaerobic agar dilution
MRSA 15187 = experiment: MIC, agar incorporation method; details: Staphylococcus aureus, MRSA, read-out: MIC MRSA 15187
MRSA 562 [10] = experiment: In vivo activity against MRSA 562 (ED50); parameters: species or system Methicillin Resistant Staphylococcus aureus; details: PO; MRSA 562 infection
[11] = in vivo; cited from earlier work
Fusobacterium montiferum = experiment: Agar dilution MIC, anaerobes; assay type: cell-based; details: Fusobacterium, single isolates, anaerobic agar dilution; read-out: MIC Fusobacterium montiferum
[12] = test system: Peptostreptococcus magnum; experiment: Agar dilution MIC, anaerobes; assay type: cell-based; details: single isolates, anaerobic agar dilution
MRSA 33 = experiment: MIC, agar incorporation method; details: Staphylococcus aureus, MRSA, read-out: MIC MRSA 33
S. pneum AB 34 = experiment: MIC, agar incorporation method; details: Streptococcus pneumoniae, AB34, read-out: MIC S. pneum AB 34
[13] = test system: Peptostreptococcus tetradius; experiment: Agar dilution MIC, anaerobes; assay type: cell-based; details: Anaerococcus tetradius, single isolates, anaerobic agar dilution; read-out: MIC Peptostreptococcus tetradius
Strep. pne. ATCC 6303 = experiment: MIC, agar incorporation method; details: Streptococcus pneumoniae, ATCC6303, read-out: MIC S. pneum 6303
VRE 6A (Ent. faecium 6A) = experiment: MIC, agar incorporation method; details: Enterococcus, VRE, read-out: MIC VRE 6A
[14] = read-out: Geometric Mean of in vitro activity (MIC)

CC(=O)NC[C@H]1CN(c2ccc(N3CCOCC3)c(F)c2)C(=O)O1 [Linezolid]
16 µg/mL: MIC50 ([8]; Mycobacterium avium, 504 h, Middlebrook 7H10 agar, 21 days, read-out: MIC50)
64 µg/mL: MIC90 ([8]; Mycobacterium avium, 504 h, Middlebrook 7H10 agar, 21 days, read-out: MIC90)
0.6 µg/mL: MIC (S. pneumoniae; [14])
2 µg/mL: Broth MIC +50% Sheep serum ([1]; +50% sheep serum) | MIC (MRSE 879) | MIC (S. aureus ATCC 25923) | MIC50 (S. aureus) | MIC Prevotella melaninogenica [7] | MIC (Ent. faecalis ATCC 29212) | MIC (Clostridium camis) | MIC (MRSA 562 [9]) | MIC (MRSA 562 [9]; read-out: MIC MRSA 562) | MIC90 (S. pneumoniae) | MIC (Clostridium perfringens) | MIC ([12]; Peptostreptococcus, read-out: MIC Peptostreptococcus magnum) | MIC (MRSA 33) | MIC (Strep. pne. ATCC 6303) | MIC (VRE 6A (Ent. faecium 6A))
12000 to 16000 ng/mL: Cmax [11]
20.587 µg/mL: G.M. [8]
0.25 to 4 µg/mL: MIC Range (anaerobic bacteria; anaerobes)
0.25 µg/mL: MIC (Fusobacterium montiferum)
2.38 µg/mL: MIC (S. aureus; [14])
2 to 4 µg/mL: MIC90 [2]
0.5 µg/mL: MIC (P. acnes) | MIC (Prevotella intermedia; Prevotella intermedia, read-out: MIC Prevotella intermedia) | MIC ([4]; Peptoniphilus asaccharolyticus) | MIC ([5]; Parvimonas micra, read-out: MIC Peptostreptococcus micros) | MIC [6] | MIC50 (S. pneumoniae) | MIC [13]
4.56 mg/kg body weight: ED50 (mg/kg body weight) PO (MRSA 562 [10])
1 µg/mL: Broth MIC Normal MH broth ([1]; normal MH broth) | MIC (Fusobacterium varium) | MIC (Prevotella bivia) | MIC Prevotella intermedia (Prevotella intermedia) | MIC Peptostreptococcus asaccharolyticus [4] | MIC50 (anaerobic bacteria; 48 h) | MIC Peptostreptococcus micros [5] | MIC ([7]; Prevotella melaninogenica, read-out: MIC Prevotella melaninogenica) | MIC (Porphyromonas gingivalis) | MIC (MRSA 15187) | MIC Peptostreptococcus magnum [12]
4 µg/mL: MIC [3] | MIC90 (anaerobic bacteria; 48 h) | MIC90 (S. aureus) | MIC (S. pneum AB 34)
1.134 µg/mL: Geometric Mean (anaerobic bacteria; anaerobes)
